Data: patent US9346769B2, “Tetrazolones as inhibitors of fatty acid synthase” (Infinity Pharmaceuticals, Inc., priority 2010, dated 2016)

Each compound was assayed against T1, human FASN (Homo sapiens, UniProt P49327) (assay: FASN NADPH Consumption Assay). Conditions: human FASN purified from SKBR3 cells; starred symbols.
T1 construct: was purified from SKBR3 cells using procedures modified from those in Jayakumar et al; endogenous in cells; host or cells: SKBR3 human breast cancer cells (ATCC); Endogenous enzyme purified by ammonium sulfate precipitation and a mono Q column
T1 sequence (P49327 whole entry): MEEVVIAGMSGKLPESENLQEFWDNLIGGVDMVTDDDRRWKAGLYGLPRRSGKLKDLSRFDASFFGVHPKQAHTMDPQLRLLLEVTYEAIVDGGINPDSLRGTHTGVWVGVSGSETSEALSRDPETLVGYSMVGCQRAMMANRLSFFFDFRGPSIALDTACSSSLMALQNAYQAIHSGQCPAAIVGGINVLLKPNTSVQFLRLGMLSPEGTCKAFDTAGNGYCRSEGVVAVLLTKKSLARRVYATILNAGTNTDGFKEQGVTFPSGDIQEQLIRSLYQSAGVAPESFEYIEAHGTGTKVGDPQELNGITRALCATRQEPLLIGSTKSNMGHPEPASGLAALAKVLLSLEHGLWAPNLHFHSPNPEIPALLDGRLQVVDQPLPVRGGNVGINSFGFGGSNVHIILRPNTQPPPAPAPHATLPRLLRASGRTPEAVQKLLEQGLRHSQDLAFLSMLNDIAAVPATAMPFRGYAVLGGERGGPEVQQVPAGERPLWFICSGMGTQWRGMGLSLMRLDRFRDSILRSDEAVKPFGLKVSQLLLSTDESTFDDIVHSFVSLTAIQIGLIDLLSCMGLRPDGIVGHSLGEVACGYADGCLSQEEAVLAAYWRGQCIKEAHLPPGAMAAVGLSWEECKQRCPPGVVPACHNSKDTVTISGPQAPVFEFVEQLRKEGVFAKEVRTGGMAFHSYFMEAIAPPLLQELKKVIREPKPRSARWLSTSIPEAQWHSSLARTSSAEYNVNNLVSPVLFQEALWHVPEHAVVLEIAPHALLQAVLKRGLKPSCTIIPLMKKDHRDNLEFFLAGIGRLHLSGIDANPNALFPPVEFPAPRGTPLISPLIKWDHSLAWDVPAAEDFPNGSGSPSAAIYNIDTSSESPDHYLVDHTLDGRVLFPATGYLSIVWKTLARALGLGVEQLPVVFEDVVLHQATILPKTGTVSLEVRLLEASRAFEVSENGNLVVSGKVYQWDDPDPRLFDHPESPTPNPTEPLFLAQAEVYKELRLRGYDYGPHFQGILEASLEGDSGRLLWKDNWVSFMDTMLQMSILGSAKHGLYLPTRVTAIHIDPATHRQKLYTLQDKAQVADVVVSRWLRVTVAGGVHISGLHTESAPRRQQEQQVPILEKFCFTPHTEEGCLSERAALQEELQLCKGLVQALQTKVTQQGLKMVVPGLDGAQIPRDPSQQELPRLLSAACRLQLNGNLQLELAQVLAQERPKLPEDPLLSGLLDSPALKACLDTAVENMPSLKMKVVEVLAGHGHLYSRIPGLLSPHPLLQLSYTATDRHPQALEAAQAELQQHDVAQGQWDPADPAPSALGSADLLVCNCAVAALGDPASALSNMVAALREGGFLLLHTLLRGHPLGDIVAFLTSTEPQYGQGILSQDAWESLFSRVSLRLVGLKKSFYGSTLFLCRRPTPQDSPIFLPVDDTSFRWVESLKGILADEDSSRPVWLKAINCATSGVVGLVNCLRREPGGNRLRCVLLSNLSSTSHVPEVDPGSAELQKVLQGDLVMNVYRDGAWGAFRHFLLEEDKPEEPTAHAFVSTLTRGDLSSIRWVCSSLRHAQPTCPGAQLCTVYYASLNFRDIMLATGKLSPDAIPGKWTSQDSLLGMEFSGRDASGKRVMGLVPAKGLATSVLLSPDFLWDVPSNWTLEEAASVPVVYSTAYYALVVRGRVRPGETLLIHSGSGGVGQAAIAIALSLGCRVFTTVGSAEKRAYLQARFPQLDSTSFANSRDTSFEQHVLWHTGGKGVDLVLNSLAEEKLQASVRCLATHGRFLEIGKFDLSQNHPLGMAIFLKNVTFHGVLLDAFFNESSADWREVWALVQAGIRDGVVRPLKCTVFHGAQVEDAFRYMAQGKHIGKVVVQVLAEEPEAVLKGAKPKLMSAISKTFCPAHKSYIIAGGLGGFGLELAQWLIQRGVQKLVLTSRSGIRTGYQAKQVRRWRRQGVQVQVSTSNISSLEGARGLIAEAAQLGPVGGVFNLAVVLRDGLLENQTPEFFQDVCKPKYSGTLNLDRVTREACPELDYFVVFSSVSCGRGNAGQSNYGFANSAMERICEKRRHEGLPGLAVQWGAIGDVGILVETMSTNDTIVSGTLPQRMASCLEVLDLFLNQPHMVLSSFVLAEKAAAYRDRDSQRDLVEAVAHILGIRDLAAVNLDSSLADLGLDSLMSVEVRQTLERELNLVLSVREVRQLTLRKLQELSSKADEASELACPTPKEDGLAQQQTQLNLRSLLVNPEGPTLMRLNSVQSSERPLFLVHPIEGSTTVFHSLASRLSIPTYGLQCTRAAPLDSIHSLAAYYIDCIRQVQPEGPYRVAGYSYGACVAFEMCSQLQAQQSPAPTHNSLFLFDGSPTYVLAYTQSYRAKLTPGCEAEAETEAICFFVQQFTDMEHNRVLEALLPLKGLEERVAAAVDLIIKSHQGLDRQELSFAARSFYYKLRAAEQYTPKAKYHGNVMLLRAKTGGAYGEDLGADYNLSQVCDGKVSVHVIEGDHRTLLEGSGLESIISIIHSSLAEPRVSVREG
Format: biochemical
Method: Human FASN protein (SEQ ID NO. 1) was purified from SKBR3 cells using procedures modified from those in Jayakumar et al. PNAS 1995, 92:8695-8699. SKBR3 cells were obtained from ATCC and grown in DMEM high glucose medium supplemented with 10% FBS, 1 μg/mL bovine pancreas insulin, 100 U/mL penicillin and 100 µg/mL streptomycin. The confluent cells were trypsinized and washed three times with PBS buffer before frozen in liquid N2 and stored at −80° C. Frozen cells were thawed on ice and resuspended in lysis buffer (25 mM Tris-HCl, pH 7.0, 15 mM NaCl, 1 mM EDTA, and 1 mM DTT) with protease inhibitors. The cells were lysed by sonication, and the cell debris was removed by centrifugation at 20,000 rpm for 30 min. To the supernatant, neutralized saturated ammonium sulfate solution was added to a final concentration of 35%. The solution was left on ice for 1 hr, and the precipitated proteins were harvested by centrifugation at 20,000 rpm for 30 min. The proteins were redissolved in lysis buffer without NaCl and loaded on a mono Q column. Bound proteins were eluted with a linear gradient of NaCl in lysis buffer. Each fraction was analyzed by SDS-PAGE and FASN NADPH consumption assay. The fractions containing FASN were pooled and concentrated to 2-3 mg/mL. Glycerol was added to 20%, and the protein was frozen in liquid N2 and stored at −80° C.
All chemicals were purchased from Sigma (St. Louis, Mo.). The procedures of NADPH consumption assay were similar to those described in Cox et al., PNAS 1983, 80:4233-4237. On a 96-well polypropylene microplate, dilution series (typical concentrations 60 nM-1.0 mM) of test compounds were prepared in DMSO, of which 4.0 μL each was transferred to a black polystyrene assay microplate and mixed with 36 μL FASN assay buffer (50 mM potassium phosphate, pH 7.0, 1.0 mM EDTA, 0.01% NP-40) plus 5.0 mM fresh DTT. FASN protein (40 μL 150 nM FASN) was added per well, and the microplate was incubated at 37° C. for 30 min. Enzyme activity measurement was initiated by addition of 20 μL 5× substrate mixture to final concentrations of 60 nM FASN, 2.4 nM-40 μM compound, 0.2 mM NADPH, 50 μM butyryl-CoA, 0.5 mM malonyl-CoA in 100 μL assay buffer plus 5.0 mM DTT and 4.0% DMSO. NADPH consumption was monitored kinetically by fluorescence (λEx=340 nm, λEm=460 nm) on an EnVision 2100 multilabel plate reader (Perkin Elmer, Waltham, Mass.). FASN enzyme activity (slope) in the presence of 4% DMSO was used as maximum control, whereas background (minimum control) was measured by omission of malonyl-CoA in the substrate mixture. Inhibition curves were fitted by a logistic function to yield IC50 values:
Compounds were assayed as inhibitors of human FASN using the above-described FASN Scintillation Proximity Flashplate Assay (IC50; nM) or FASN NADPH Consumption Assay (*) (IC50; nM). The corresponding activity of the isolated compound is also provided along with the measured mass (ES^+).

Row | Compound | IC50 [nM]
1 | O=C(Nc1ccccc1)n1nnn(-c2ccccc2)c1=O | > 10000
2 | CCN(C(=O)n1nnn(-c2ccccc2)c1=O)c1cc(C(=O)O)ccc1OC | 60 to 250
3 | O=C(O)c1ccc(N(CCc2ccccc2)C(=O)n2nnn(-c3ccccc3)c2=O)cc1 | 250 to 1000
4 | CCN(C(=O)n1nnn(-c2ccccc2OC)c1=O)c1cccc(C(=O)O)c1OC | 250 to 1000
5 | COc1ccccc1-n1nnn(C(=O)N(c2ccccc2)c2ccc(C(=O)O)cc2)c1=O | < 60
6 | CCCOc1ccc(C(=O)O)cc1N(CC)C(=O)n1nnn(-c2ccccc2OC)c1=O | 250 to 1000
7 | CCCCCCN(C(=O)n1nnn(-c2ccccc2OC)c1=O)c1cc(C(=O)O)ccc1OC | 250 to 1000
8 | COc1ccc(C(=O)O)cc1N(CCCc1ccccc1)C(=O)n1nnn(-c2ccccc2OC)c1=O | 250 to 1000
9 | CCN(C(=O)n1nnn(-c2ccccc2OC)c1=O)c1cc(C(=O)O)ccc1OC(C)C | 1000 to 10000
10 | CN(C(=O)n1nnn(-c2ccccc2Cl)c1=O)c1ccccc1 | 250 to 1000
11 | CN(C(=O)n1nnn(-c2ccccc2Cl)c1=O)c1ccc(Br)cc1 | 60 to 250
12 | CN(C(=O)n1nnn(-c2ccccc2Cl)c1=O)c1ccccc1F | 60 to 250
13 | CCN(C(=O)n1nnn(-c2ccccc2Cl)c1=O)c1ccccc1 | 60 to 250
14 | CN(C(=O)n1nnn(-c2ccccc2F)c1=O)c1ccccc1 | 250 to 1000
15 | CCN(C(=O)n1nnn(-c2c(F)cccc2F)c1=O)c1ccc([N+](=O)[O-])cc1F | 60 to 250
16 | CCN(C(=O)n1nnn(-c2c(F)cccc2F)c1=O)c1ccc(Br)cc1 | < 60
17 | O=C(N(CCO)c1ccccc1)n1nnn(-c2c(F)cccc2F)c1=O | 1000 to 10000
18 | CS(=O)(=O)NCCCN(C(=O)n1nnn(-c2c(Cl)cccc2Cl)c1=O)c1ccc(C(=O)O)cc1 | 1000 to 10000
19 | CCN(C(=O)n1nnn(-c2c(Cl)cccc2Cl)c1=O)c1ccc(C(=O)OCc2ccccc2)c(OC)c1 | 60 to 250
20 | O=C(OCc1ccccc1)c1ccc(N(CCc2cccnc2)C(=O)n2nnn(-c3c(Cl)cccc3Cl)c2=O)cc1 | 250 to 1000
21 | O=C(O)c1ccc(N(CCc2cccnc2)C(=O)n2nnn(-c3c(Cl)cccc3Cl)c2=O)cc1 | 1000 to 10000
22 | CCN(C(=O)n1nnn(-c2c(Cl)cccc2Cl)c1=O)c1ccc([N+](=O)[O-])cc1F | 250 to 1000
23 | CCN(C(=O)n1nnn(-c2c(Cl)cccc2Cl)c1=O)c1cccc(CO)c1 | 250 to 1000
24 | CCN(C(=O)n1nnn(-c2c(Cl)cccc2Cl)c1=O)c1ccc(N)cc1 | 60 to 250
25 | C=CCN(C(=O)n1nnn(-c2c(Cl)cccc2Cl)c1=O)c1ccccc1 | 1000 to 10000
26 | CCN(C(=O)n1nnn(-c2c(Cl)cccc2Cl)c1=O)c1ccc(C(=O)OCc2ccc(OC)cc2)cc1Cl | 60 to 250

Row | Compound | IC50 [nM]
27 | CN(C(=O)n1nnn(-c2c(Cl)cccc2Cl)c1=O)c1ccccc1 | 60 to 250
28 | CCN(C(=O)n1nnn(-c2c(Cl)cccc2Cl)c1=O)c1cccc(NS(=O)(=O)C(F)(F)F)c1 | 60 to 250
29 | CCN(C(=O)n1nnn(-c2c(OC)cccc2OC)c1=O)c1ccc(C(=O)O)c(OC)c1 | 250 to 1000
30 | CCN(C(=O)n1nnn(-c2c(F)cccc2OC)c1=O)c1ccc(C(=O)OCc2ccccc2)c(OC)c1 | < 60
31 | COc1cccc(F)c1-n1nnn(C(=O)N(c2cccc(C(=O)O)c2)C2CC2)c1=O | 60 to 250
32 | CCN(C(=O)n1nnn(-c2c(F)cccc2OC)c1=O)c1ccccc1C(C)(C)C | 1000 to 10000
33 | CCN(C(=O)n1nnn(-c2c(F)cccc2C(=O)O)c1=O)c1ccccc1Oc1ccccc1 | 1000 to 10000
34 | CCN(C(=O)n1nnn(-c2c(F)cccc2C#Cc2ccccc2)c1=O)c1ccccc1 | 60 to 250
35 | CCN(C(=O)n1nnn(-c2c(F)cccc2C#Cc2ccccc2C)c1=O)c1ccccc1 | 60 to 250
36 | CCN(C(=O)n1nnn(-c2c(F)cccc2CCc2ccccc2C)c1=O)c1ccccc1 | 60 to 250
37 | CCN(C(=O)n1nnn(-c2c(F)cccc2Br)c1=O)c1ccccc1 | 60 to 250
38 | CCN(C(=O)n1nnn(-c2c(F)cc(F)cc2Br)c1=O)c1ccccc1 | 60 to 250
39 | CN(C(=O)n1nnn(-c2ccccc2Cl)c1=O)c1ccccn1 | 1000 to 10000
40 | CN(Cc1ccccc1)C(=O)n1nnn(-c2ccccc2Cl)c1=O | 1000 to 10000
41 | COc1ccc(CNC(=O)n2nnn(-c3c(Cl)cccc3Cl)c2=O)c(OC)c1 | > 10000
42 | CN(CCc1ccccc1)C(=O)n1nnn(-c2ccccc2Cl)c1=O | > 10000
43 | CC(=O)N[C@H]1CCN(C(=O)n2nnn(-c3c(Cl)cccc3Cl)c2=O)C1 | > 10000
44 | CNC(=O)[C@@H]1CCCN1C(=O)n1nnn(-c2c(Cl)cccc2Cl)c1=O | > 10000
45 | O=C(C1CCCN(C(=O)n2nnn(-c3c(Cl)cccc3Cl)c2=O)C1)N1CCCC1 (stereo not drawn) | > 10000
46 | CC(C)(C)OC(=O)NC1CCCN(C(=O)n2nnn(-c3c(Cl)cccc3Cl)c2=O)C1 (stereo not drawn) | 1000 to 10000
47 | CN(C)C1CCCN(C(=O)n2nnn(-c3c(Cl)cccc3Cl)c2=O)C1 (stereo not drawn) | 1000 to 10000
48 | O=C(N1CCOc2ccccc21)n1nnn(-c2c(F)cccc2F)c1=O | 1000 to 10000
49 | O=C(N1CCCCc2ccccc21)n1nnn(-c2c(F)cccc2F)c1=O | 60 to 250
50 | Cc1ccccc1C#Cc1cccc(F)c1-n1nnn(C(=O)N2CCCCc3ccccc32)c1=O | 60 to 250
51 | O=C(N1CCCCc2ccccc21)n1nnn(-c2c(F)cccc2Br)c1=O | 250 to 1000

Next, values leading:

Row | IC50 [nM] | Compound
52 | 60 to 250 | CCN(C(=O)n1nnn(-c2ccccc2OC)c1=O)c1ccc(C(=O)OCc2ccccc2)c(OC)c1
53 | 60 to 250 | CCN(C(=O)n1nnn(-c2ccccc2OC)c1=O)c1ccc(C(=O)O)cc1OC
54 | 60 to 250 | CCN(C(=O)n1nnn(-c2ccccc2OC)c1=O)c1ccc(C(=O)O)c(OC)c1
55 | < 60 | CCN(C(=O)n1nnn(-c2ccccc2OC)c1=O)c1cc(C(=O)O)ccc1Cl
56 | 250 to 1000 | CC(C)N(C(=O)n1nnn(-c2ccccc2Cl)c1=O)c1ccccc1
57 | 60 to 250 | C=CCN(C(=O)n1nnn(-c2ccccc2Cl)c1=O)c1ccccc1
58 | 250 to 1000 | CN(C(=O)n1nnn(-c2ccccc2Cl)c1=O)c1cccc(F)c1
59 | 250 to 1000 | C/C=C(/C)c1ccc(N(C)C(=O)n2nnn(-c3ccccc3Cl)c2=O)cc1
60 | 250 to 1000 | CN(C(=O)n1nnn(-c2ccccc2Br)c1=O)c1ccccc1
61 | 60 to 250 | CCN(C(=O)n1nnn(-c2c(Cl)cccc2Cl)c1=O)c1cccc(CO[Si](C)(C)C(C)(C)C)c1
62 | 60 to 250 | CCN(C(=O)n1nnn(-c2c(Cl)cccc2Cl)c1=O)c1ccc(C(=O)O)cc1OC
63 | < 60 | CCN(C(=O)n1nnn(-c2c(Cl)cccc2Cl)c1=O)c1cccc(C(=O)NS(=O)(=O)c2ccccc2)c1
64 | 250 to 1000 | CCN(C(=O)n1nnn(-c2c(Cl)cccc2Cl)c1=O)c1ccccc1
65 | > 10000 | O=C(OCc1ccccc1)c1ccc(N(CCc2ccccc2)C(=O)n2nnn(-c3c(Cl)cccc3Cl)c2=O)cc1
66 | 250 to 1000 | CCN(C(=O)n1nnn(-c2c(OC)cccc2OC)c1=O)c1ccc(C(=O)OCc2ccccc2)c(OC)c1
67 | 250 to 1000 | CCCCOc1ccccc1N(CC)C(=O)n1nnn(-c2c(F)cccc2OC)c1=O
68 | 60 to 250 | CCN(C(=O)n1nnn(-c2c(F)cccc2C(=O)OC)c1=O)c1ccccc1
69 | 60 to 250 | CCN(C(=O)n1nnn(-c2c(F)cccc2CCc2ccccc2)c1=O)c1ccccc1
70 | 250 to 1000 | CN(C(=O)n1nnn(-c2c(F)cccc2F)c1=O)c1ccccn1
71 | > 10000 | CC(=O)N[C@@H]1CCN(C(=O)n2nnn(-c3c(Cl)cccc3Cl)c2=O)C1
72 | > 10000 | CN(C)C(=O)[C@@H]1CCCN1C(=O)n1nnn(-c2c(Cl)cccc2Cl)c1=O
73 | 1000 to 10000 | CC(C)(C)OC(=O)C1CCN(C(=O)n2nnn(-c3c(Cl)cccc3Cl)c2=O)CC1
74 | 1000 to 10000 | CCN(CC)C(=O)C1CCCN(C(=O)n2nnn(-c3c(Cl)cccc3Cl)c2=O)C1 (stereo not drawn)
75 | 1000 to 10000 | O=C(OCc1ccccc1)c1ccc2c(c1)CCCN2C(=O)n1nnn(-c2c(Cl)cccc2Cl)c1=O
76 | < 60 | O=C(N1c2ccccc2Sc2ccccc21)n1nnn(-c2c(F)cccc2F)c1=O
77 | 60 to 250 | O=C(N1Cc2ccccc2Cc2ccccc21)n1nnn(-c2c(F)cccc2F)c1=O
78 | 60 to 250 | Cc1ccccc1CCc1cccc(F)c1-n1nnn(C(=O)N2CCCCc3ccccc32)c1=O
